Changes are numbered by the printed parent chain.
Tests used:
[1] = target: T1, ROS-GC1 (rod outer segment guanylate cyclase type 1), full-length recombinant (Bos taurus, UniProt P55203, A1013R/N1009A); test: biochemical
T1 construct: gene GUCY2D
T1 sequence (P55203 57-1110 N1009A/A1013R): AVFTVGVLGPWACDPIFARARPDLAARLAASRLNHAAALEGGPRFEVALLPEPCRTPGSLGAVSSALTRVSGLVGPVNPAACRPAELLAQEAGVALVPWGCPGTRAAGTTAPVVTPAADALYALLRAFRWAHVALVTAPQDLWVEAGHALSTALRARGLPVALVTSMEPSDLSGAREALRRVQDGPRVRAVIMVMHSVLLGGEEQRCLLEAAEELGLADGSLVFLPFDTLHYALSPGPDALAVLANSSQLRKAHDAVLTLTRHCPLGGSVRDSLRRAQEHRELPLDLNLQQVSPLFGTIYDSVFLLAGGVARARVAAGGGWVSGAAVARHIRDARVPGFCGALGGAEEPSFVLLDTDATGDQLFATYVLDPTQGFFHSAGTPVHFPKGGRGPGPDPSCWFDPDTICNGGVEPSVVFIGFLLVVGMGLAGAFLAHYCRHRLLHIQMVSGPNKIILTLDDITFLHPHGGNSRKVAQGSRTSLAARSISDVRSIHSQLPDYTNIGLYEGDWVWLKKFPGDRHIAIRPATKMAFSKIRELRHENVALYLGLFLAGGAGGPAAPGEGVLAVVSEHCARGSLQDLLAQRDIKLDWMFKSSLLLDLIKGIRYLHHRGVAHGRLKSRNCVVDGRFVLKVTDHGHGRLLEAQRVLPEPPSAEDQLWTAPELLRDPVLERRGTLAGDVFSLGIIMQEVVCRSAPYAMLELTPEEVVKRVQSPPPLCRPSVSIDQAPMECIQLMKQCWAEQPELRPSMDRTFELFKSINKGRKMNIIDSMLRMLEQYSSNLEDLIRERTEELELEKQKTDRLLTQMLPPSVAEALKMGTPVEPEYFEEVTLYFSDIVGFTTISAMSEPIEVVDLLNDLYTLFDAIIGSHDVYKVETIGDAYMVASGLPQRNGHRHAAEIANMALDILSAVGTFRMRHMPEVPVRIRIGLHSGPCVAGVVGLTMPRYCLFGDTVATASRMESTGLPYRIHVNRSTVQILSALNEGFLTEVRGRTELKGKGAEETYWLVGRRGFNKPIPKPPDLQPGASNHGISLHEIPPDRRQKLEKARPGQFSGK

[2] = target: T2, ROS-GC1 (rod outer segment guanylate cyclase type 1), full-length recombinant (Bos taurus, UniProt P55203, A1013R/D890A); test: biochemical
T2 construct: gene GUCY2D
T2 sequence (P55203 57-1110 D890A/A1013R): T1 sequence (P55203 57-1110 N1009A/A1013R) with D834A, A953N

EC50 [1]: ~25 mM
EC50 [2]: ~30 mM
SMILES: O=C(O)O [bicarbonate]

Reference: PMC5461267, “Membrane Guanylate Cyclase catalytic Subdomain: Structure and Linkage with Calcium Sensors and Bicarbonate” (Frontiers in Molecular Neuroscience, 2017)
